The record followed here is ChEMBL document CHEMBL5137136, “A Cytotoxic Heterodimeric Cyclic Diarylheptanoid with a Rearranged Benzene Ring from the Seagrass Zostera marina” (J Nat Prod, 2022).

Activity calls are given as the source filed them. No cut-off for these calls is given here.

Assay [1] relates to HCT-116. The experiment in a line: Cytotoxicity against human HCT-116 cells assessed as cell growth inhibition at 10 uM incubated for 48 hrs by MTT assay relative to control. It counts as functional. For orientation: Tetrazolium dyes change colour on reduction, which living cells bring about.
The test system of assay [2] is HCT-116. The experiment in a line: Cytotoxicity against human HCT-116 cells assessed as reduction in cell viability incubated for 48 hrs by MTT assay. It counts as functional, cell-based. The conditions noted are these: HCT-116, 48 h.
Assay [3] relates to HCT-116. Nature of the assay: Cytotoxicity against human HCT-116 cells assessed as reduction in cell viability at 10 uM incubated for 48 hrs by MTT assay relative to control. It counts as functional.
Assay [4] concerns HCT-116. The experiment in a line: Induction of morphological changes in human HCT-116 cells at 10 uM incubated for 48 hrs by phase contrast microscopy analysis. It counts as functional, cell-based.

As for `COc1cc2c3c(c1O)-c1cc(ccc1O)CC/C=C\[C@@H]3C([C@@H]1C3=CC(=O)[C@@]4(O)Oc5ccc(cc5[C@@H]14)CC/C=C\C=C\C3)=C2`, the inhibition at 10 µM in the assay with HCT-116 [1] came out at 23%.
Turning to `COc1cc(O)c2cc1CC/C=C\C=C\CC1=C(O)C(=O)C=C(O2)[C@H]1C1=Cc2cc(OC)c(O)c3c2[C@@H]1/C=C\CCc1ccc(O)c-3c1`, the half-maximal inhibitory concentration (IC50) in the assay on HCT-116 [2] is 3.6 µM. Moreover, the Activity with HCT-116 [3] was found to be 97%.
Turning to `COc1cc2c3c(c1O)-c1cc(ccc1O)CC/C=C\[C@@H]3C([C@@H]1C3=CC(=O)[C@]14C(=O)Oc1ccc(cc14)CC/C=C\C=C\C3)=C2`, the outcome with HCT-116 [4] was Active. Also, the half-inhibitory concentration (IC50) in the assay with HCT-116 [2] is 7.6 µM. Besides, in the assay on HCT-116 [1], the inhibition at 10 µM turned out to be 73%.

The inhibition is the change of the read-out against control, counted positive when it falls. By IC50 is commonly meant the midpoint of a concentration-inhibition curve.
